Reference: US20200390909A1, “DRUG FRAGMENT IMAGING AGENT CONJUGATES” (The Board of Trustees of the Leland Stanford Junior …, priority 2018, published 2020)

Tests used:
[1] = test system: breast tumor; assay: NIRF imaging of breast tumor after oral gavage of systemic functional dye; assay type: in vivo, mouse
Procedure: FIG. 6A-6D. Highlighting a breast tumor following oral administration of an exemplary systemic functional dye (Compound (8), SU780). FIG. 6A NIRF imaging of the intact mouse 24 h post oral gavage of SU780.
A wild type with an unidentified spontaneous flank tumor received an oral gavage of Compound (8) (SU780) (0.4 mg/kg). The following day, the animal was sacrificed, and the tumor was subjected to NIRF imaging.
Shown in FIG. 6 is the highlighting of a breast tumor following oral administration of the systemic functional dye Compound (8) (SU780).

[2] = systemically administered, clinical optical contrast agent; cited from earlier work

Structure (SMILES)	localisation in H&E processed tumor section ([1]; after tissue processing for H&E)	fluorescence of residual tumor tissue in resection bed (image-guided resection) ([1]; after tumor resection, oral gavage)	highlighting of tumor by NIRF imaging after oral administration ([1]; mouse with spontaneous flank (breast) tumor, oral gavage 0.4 mg/kg, following day, resected tumor)	NIRF signal at tumor margin / tumor infiltration into normal tissue (tissue section) ([1]; oral gavage 0.4 mg/kg, 0.4 mg/kg)	NIRF signal at tumor margin / tumor infiltration into normal tissue (tissue section) ([1]; oral gavage 0.4 mg/kg, listed as SU780, 0.4 mg/kg)	TBR [2]
CCCN1/C(=C/C=C2\CCCC(/C=C/C3=[N+](CCC)c4ccccc4C3(C)C)=C2Nc2ccc(NC(=O)CN3CCOCC3)cc2)C(C)(C)c2ccccc21 [Compound (8)]	highlights mainly epithelial cancer cells	residual tumor tissue was fluorescing in the resection bed	highlights the tumor	perfect correlation with tumor infiltration into normal tissues	highlights the finger-like infiltration of the breast cancer cells into normal mammary fat pad	
CC1(C)C(/C=C/C2=C(Oc3ccc(C[C@H](NC(=O)c4ccc(NCc5cnc6nc(N)[nH]c(=O)c6n5)cc4)C(=O)[O-])cc3)C(=C/C=C3\N(CCCCS(=O)(=O)[O-])c4ccc(S(=O)(=O)[O-])cc4C3(C)C)/CCC2)=[N+](CCCCS(=O)(=O)[O-])c2ccc(S(=O)(=O)[O-])cc21.[H+].[H+].[H+].[H+] [OTL38]						4.4
